Test results: the supplement of paper PMC10307832

What was measured:
Experiment in all cases: relative viability (nuclei count vs DMSO), 5 days (fraction); higher = more cells survive
[1] = compound: C=CCc1cccc(/C=N/NC(=O)CN2CCN(Cc3ccccc3)CC2)c1O [PAC-1] + COc1cccc2cc(-c3nc([C@H]4CC[C@H](C(=O)O)CC4)n4ncnc(N)c34)[nH]c12 [OSI-027] (partner 0.5 µM)
How it was run: (§1)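 Lung cancer cell lines in 1536-well plates got either a single drug or a fixed anchor-drug dose together with five library-drug doses (not always all listed) in √10 steps, by pin tool, on the day after seeding. Nuclei were counted after 5 days, and relative viability is the treated-to-vehicle ratio of nuclei counts. Values are medians of duplicate plates.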

[2] = compound: C=CC(=O)N1CCC[C@@H](n2nc(-c3ccc(Oc4ccccc4)cc3)c3c(N)ncnc32)C1 [Ibrutinib] + CC1(C)CCC(c2ccc(Cl)cc2)=C(CN2CCN(c3ccc(C(=O)NS(=O)(=O)c4ccc(N[C@H](CCN5CCOCC5)CSc5ccccc5)c(S(=O)(=O)C(F)(F)F)c4)cc3)CC2)C1 [Navitoclax] (partner 0.5 µM)
How it was run: as §1

[3] = compound: C=CC(=O)Nc1cc(-n2c(=O)ccc3cnc4ccc(-c5ccc(NS(C)(=O)=O)cc5)cc4c32)ccc1C [BMX-IN-1] + CC(C)C[C@H](NC(=O)[C@H](Cc1ccccc1)NC(=O)c1cnccn1)B(O)O [Bortezomib] (partner 0.002 µM)
How it was run: as §1

[4] = compound: C=CC(=O)Nc1cc(-n2c(=O)ccc3cnc4ccc(-c5ccc(NS(C)(=O)=O)cc5)cc4c32)ccc1C [BMX-IN-1] + C[C@]1(O)C[C@@H](c2nc(-c3ccc4ccc(-c5ccccc5)nc4c3)c3c(N)nccn32)C1 [Linsitinib] (partner 1 µM)
How it was run: as §1

Cell Line	relative viability ([1]; first compound 0.02 µM)	relative viability ([1]; first compound 0.06325 µM)	relative viability ([1]; first compound 0.2 µM)	relative viability ([1]; first compound 2 µM)	relative viability ([2]; first compound 0.005 µM)	relative viability ([2]; first compound 0.01581 µM)	relative viability ([2]; first compound 0.05 µM)	relative viability ([2]; first compound 0.1581 µM)	relative viability ([2]; first compound 0.5 µM)	relative viability ([3]; first compound 0.02 µM)	relative viability ([3]; first compound 0.2 µM)	relative viability ([3]; first compound 0.6325 µM)	relative viability ([3]; first compound 2 µM)	relative viability ([4]; first compound 0.02 µM)	relative viability ([4]; first compound 0.2 µM)	relative viability ([4]; first compound 0.6325 µM)	relative viability ([4]; first compound 2 µM)
201T	0.702	0.754	0.848	0.839	1.22	1.17	1.17	1.22	1.17	1.13	1.07	1.12	1.1	1.13	1.02	1.04	1.01
A549					1.26	1.2	1.23	1.3	1.19					0.627	0.973	0.808	0.552
A-427	0.434	0.481	0.47	0.476	0.861	0.923	0.985	0.98	0.92	1.03	1.06	1.18	0.985	1.19	1.09	1.14	1.12
ABC-1	0.478	0.44	0.468	0.457						0.34	0.302	0.244	0.306	0.993	0.807	0.775	0.764
BEN	0.303	0.264	0.291	0.289	0.0796	0.0705	0.0699	0.0622	0.0639	0.808	0.95	0.7	0.772	1.08	1.13	0.995	0.942
CAL-12T	0.673	0.723	0.567	0.645		1.16	1.33	1.37	0.951	0.92	0.785	1.17	0.949	0.849	0.811	0.932	1.01
COR-L23	0.885	0.771	0.724	0.698	1.14	1	1.04	1.16	1.11	1.27	1.54	1.09	1.05	1.62	1.11	0.994	1.01
COR-L 105	0.756	0.669	0.615	0.756	0.548	0.74	0.625	0.681	0.385	0.965	0.697	1.03	0.659	0.801	0.875	1.01	0.877
Calu-6					0.954	0.746	0.771	0.955	0.756	1.03	1.09	1.31	1.07	1.05	0.984	0.998	1.03
ChaGo-K-1	0.623	0.617	0.57	0.635	0.506	1.12	0.933		1.19	1.08	1.1	1.31	1.17				
EBC-1					0.441	0.433	0.516	0.349	0.388	0.574	0.581	0.626	0.598	1.08	0.802	0.983	1.04
EKVX	0.744	0.674	0.696	0.702	0.868	0.96	0.915	0.806	0.485	1.42	1.23	1.11	1.19	1.14	1.17	1.13	1.02
EMC-BAC-2	0.367	0.363	0.371	0.382	1.16	1.06	1.01	1.16	1.02	1.15	1.1	1.26	1.1	0.916	0.782	0.84	0.802
EPLC-272H	0.312	0.27	0.22	0.262		0.982	1.07	1.28	0.694	1.28	1.09	0.872	0.887	1.19	1.35	1.42	1.01
H3255	0.604	0.487	0.558	0.611	0.539	0.511	0.226	0.425	0.157	0.916	0.466	0.99	0.732	1.07	1.01	0.965	0.912
HARA	0.487	0.54	0.426	0.504	1.17	1.1	1.12	1.15	0.791	1.14	1.62	1.16	1.22	1.2	1.21	0.851	0.886
HCC-15	0.668	0.726	0.672	0.684	0.741	0.62	0.701	0.727	0.673	1.25	1.06	1.24	1.1	0.918	0.984	0.899	0.821
HCC-44	0.486	0.62	0.607	0.585	0.977	0.913	0.935	0.995	0.919	0.902	1.06	1.07	0.957	0.804	0.735	0.702	0.642
HCC-78	0.336	0.335	0.376	0.396	0.785	0.746	0.722	0.696	0.566	0.534	0.474	0.432	0.546	0.572	0.571	0.582	0.643
HCC-366	0.946	0.863	0.894	1.26	0.986	0.977	1.06			1.88	1.78	1.28	1.09	0.779	0.995	0.736	0.601
HCC-827	0.763	0.692	0.703	0.792	1.01	0.995	1.08	1.04	0.434	1.11	1.09	1.16	1.11	1.05	1.01	0.999	0.969
HOP-62	0.836	0.814	0.782	0.892	1.16	1.11	1.16	1.07	1.2	0.934	0.851	0.769	0.6	0.959	1	1.02	0.947
IA-LM					0.768	0.853	0.79	0.79	0.951	0.884	0.928	0.984	0.884	0.701	0.674	0.47	0.6

Cell Line	relative viability ([1]; first compound 0.02 µM)	relative viability ([1]; first compound 0.06325 µM)	relative viability ([1]; first compound 0.2 µM)	relative viability ([1]; first compound 2 µM)	relative viability ([2]; first compound 0.005 µM)	relative viability ([2]; first compound 0.01581 µM)	relative viability ([2]; first compound 0.05 µM)	relative viability ([2]; first compound 0.1581 µM)	relative viability ([2]; first compound 0.5 µM)	relative viability ([3]; first compound 0.02 µM)	relative viability ([3]; first compound 0.2 µM)	relative viability ([3]; first compound 0.6325 µM)	relative viability ([3]; first compound 2 µM)	relative viability ([4]; first compound 0.02 µM)	relative viability ([4]; first compound 0.2 µM)	relative viability ([4]; first compound 0.6325 µM)	relative viability ([4]; first compound 2 µM)
LC-2-ad	0.877	1.05	0.78	0.64	0.408	0.362	0.535	0.477	0.402	1.02	1.28	1.01	1.04	1.03	0.861	0.823	0.852
LCLC-97TM1	0.436	0.536	0.453	0.449	0.486	0.561	0.474	0.398	0.377	0.332	0.562	0.629	0.505	0.202	0.166	0.162	0.162
LCLC-103H	0.45	0.467	0.436	0.559						1.11	0.972	1.25	0.932	1.12	1.06	1.09	1.14
LK-2	0.186	0.195	0.208	0.206		0.7	0.851	0.956	0.75					0.798	0.792	0.696	0.765
LOU-NH91	0.643	0.68	0.727	0.715	0.601	0.572	0.549	0.585	0.407		0.512	0.459	0.49		0.976	0.993	0.919
LU99A	0.303	0.314	0.257	0.3	0.725	0.684	0.772	0.814	0.664	1.2	1.18	1.2	1.12	0.547	0.533	0.532	0.535
LXF-289	0.764	0.835	0.739	0.789	1.02	0.895	0.956	0.97	0.917	1.09	1.16	1.11	1.05	0.982	1.05	1.07	1.04
NCI-H358	0.7	0.632	0.693	0.631										1	0.732	0.816	0.806
NCI-H522	0.673	0.695	0.737	0.691													
NCI-H650	0.47	0.515	0.468	0.535						1.06	0.762	0.783	0.749	0.839	1.09	1.02	0.858
NCI-H661	0.631	0.747	0.785	0.577						0.86	0.785	0.841	0.685	0.677	0.54	0.5	0.685
NCI-H1299					1.07	1.02	1.11	1.07	1.04	0.968	1.08	1.13	0.97	1.2	0.986	1.13	1.12
NCI-H1395	0.66	0.603	0.667	0.54	1.07		1.15	1.54	1.17					0.975	1	1.11	1.08
NCI-H1563	0.757	0.814	0.742	0.753						0.896	0.925	0.891	0.79	1.16	1.33	1.16	1.18
NCI-H1623	0.455	0.446	0.442	0.448													
NCI-H1648	0.239	0.264	0.27	0.317													
NCI-H1650	0.569	0.614	0.55	0.612	0.998	0.932	1.24	1.25	1.1	0.178	0.203	0.201	0.186				
NCI-H1703					0.896	0.96	1.05	1.17	0.731	0.257	0.329	0.337	0.242	0.945	0.666	0.712	0.746
NCI-H1793	0.249	0.277	0.311	0.247		0.282	0.603	0.498	0.343					1.33	0.987	1.24	0.844
NCI-H1944	0.362	0.439	0.456	0.423	0.902	0.985	0.811	0.969	0.689					1.34	1.22	1.33	1.2
NCI-H2170	0.701	0.631	0.784	0.645	0.377	0.343	0.235	0.527	0.195								
NCI-H2342	0.653	0.574	0.65	0.682													
SW 900	0.69	0.828	0.572	0.496													
